# Data published in the METLIN SMRT retention time set (Domingo-Almenara et al. 2019).
# Assay: gradient 5% acetonitrile 3 min, to 50% in 2 min, to 85% in 15 min, held 3 min, 100 µL/min
# Details: column: Zorbax Extend-C18 2.1 x 50 mm; eluents: water / acetonitrile, 0.1% formic acid
# Outline: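 The system's dead and dwell volumes were 40 μL and 900 μL, with a Zorbax Extend-C18 column (2.1 × 50 mm, 1.8 μm) run at 100 μL/min in water and acetonitrile containing 0.1% formic acid each. Pure standards were analyzed in mixtures of ~100 molecules by HPLC–quadrupole time-of-flight mass spectrometry in positive and negative ionization mode. Retention time was assigned from computationally picked, manually inspected adduct peaks.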
row,Structure (SMILES),RP-LC retention time [s]
1,CCOC(=O)c1c(S(=O)(=O)N2CCC(C(=O)Nc3ccccc3)CC2)c(C)n(C)c1C,834
2,COc1ccc(S(=O)(=O)Nc2cc(-c3cn4cccc(C)c4n3)ccc2C)cc1,664
3,CCc1nc(OCC(=O)Nc2ccc(F)c(Cl)c2)c2ccccc2n1,888
4,CCC(C)NC(=O)c1cn(-c2ccc(-c3nc(C(C)C)no3)cn2)cn1 (stereo unspecified),899
5,C=CCN1CCN(C(=O)C2CCN(c3nc(NC(C)=O)c(C(=O)N4CCCC4)s3)CC2)CC1,579
6,Cc1nc(-c2ccncc2)nc2c1CC(=O)N2C1CCCC1,703
7,CCOc1ccc(-c2csc(C)n2)cc1S(=O)(=O)Nc1ccc(OC)cc1,940
8,O=C(CCn1cnc2cc(-c3noc(COc4ccc(Cl)cc4)n3)ccc21)N1CCCC1,786
9,COc1ccccc1NC(=O)N1CCC(CNS(=O)(=O)c2cc(C)ccc2C)CC1,735
10,CN(C)c1ccc(CCCNS(=O)(=O)c2ccc(Cl)s2)cc1,655
11,CC(C)c1ccc(NC(=O)C2CCN(C(=O)c3ncn4c3COC(c3ccccc3)C4)CC2)cc1 (stereo unspecified),914
12,CC1CCN(S(=O)(=O)c2cc(-c3nnc(C4CCCC4)o3)co2)CC1,1080
13,COc1ccccc1C(=O)Nc1cccn2ncnc12,803
14,O=c1c2ccccc2c(-c2nc(-c3cccnc3)no2)cn1-c1ccccc1,1010
15,CCNC(=O)c1ccc(-n2nc(C)c(C)c2C)nc1,758
16,COc1ccc(N2CCN(C3CC(=O)N(Cc4ccc(N5CCCC5=O)cc4)C3=O)CC2)cc1 (stereo unspecified),662
17,Cc1nnc(N2CCC(C(=O)NCCN3CCOCC3)CC2)c2nn(-c3ccc(Cl)cc3)c(C)c12,571
18,O=C(NC1CCCCC1)c1cc2n(n1)CCCN(Cc1ccccc1)C2=O,891
19,O=C(NC1CCCCC1)N1CCC2(CC1)NCc1ccccc1-n1ccnc12,608
20,CC(C)N1CCC(CCNC(=O)C2CN(C(=O)c3ccncc3)CC23CCCCC3)CC1 (stereo unspecified),567
21,O=C(NCC(O)c1cccc2ccccc12)c1ccccc1C(F)(F)F (stereo unspecified),814
22,O=C(c1ccccc1Br)N1CCc2nc(-c3ccc(Cl)cc3)ncc2C1,1110
23,COc1ccc(S(=O)(=O)N2CCCC(C(=O)N3CCN(Cc4ccccc4)CC3)C2)cc1Cl (stereo unspecified),707

row,Structure (SMILES),RP-LC retention time [s]
1,Cc1cccc(-c2noc(Cc3nc(-c4ccc5c(c4)OCO5)cs3)n2)c1,1200
2,COC(=O)C1=CN(c2ccc(F)cc2C)c2ccccc2S1(=O)=O,911
3,O=c1ccc(-c2ccccc2)nn1CCc1nc(-c2ccncc2)no1,727
4,CCc1ccc(NC(=O)c2cn(C)nc2S(=O)(=O)N2CCSCC2)cc1,1040
5,Cc1ccc(S(=O)(=O)N2CCCN(C)c3ccccc32)cc1F,1100
6,Cc1cc(NC(=O)c2ccc3c(c2)OCO3)sn1,682
7,COc1ccc(Nc2nc(-c3nnn(-c4ccc(F)cc4F)c3C)ns2)cc1OC,900
8,CCCCNC(=O)C1CCN(c2cc(N3CCCCC3)ncn2)CC1,642
9,O=C(Cc1cccs1)NCCOc1ccc(F)cc1,766
10,Cc1ccc(N2CC(c3nc4ccccc4n3CC(=O)N(CC(C)C)CC(C)C)CC2=O)cc1 (stereo unspecified),967
11,CC(C)(C)c1csc(-c2csc(S(=O)(=O)NCCN3CCc4ccccc4C3)c2)n1,846
12,CCOc1ccccc1CN1CCn2c(nnc2[C@@H]2C[C@@H](O)CN2Cc2cccnc2)C1,581
13,COC(=O)CCN1C(=O)c2ccccc2C1=O,688
14,Cc1ccc(C(=O)N2CCC3(CC2)N=C(c2cccc(Br)c2)NO3)cc1,938
15,COc1ccc(CC(=O)NCCc2cn(C)c3ncccc23)cc1Cl,679
16,Cc1ccc(-c2noc(Cn3ccnc3)n2)cc1C,659
17,CCCn1c(-c2cccc(C(=O)NCc3ccncc3)c2)nc2cccnc21,592
18,Cc1cccc(NC(=O)c2cc(C(C)(C)C)n3nccc3n2)c1,1240
19,CCCCN(C)C(=O)CC1Sc2ncccc2N(CC(C)C)C1=O (stereo unspecified),876
20,CCc1nn2c(CNS(=O)(=O)Cc3ccccc3F)c(-c3ccccc3)nc2s1,948
21,CN1C(=O)CCC2(CNC(=O)Nc3ccc4c(c3)OCCO4)CCCC=C12 (stereo unspecified),722
22,COc1cccc2cc(C(=O)NCc3ccc(S(N)(=O)=O)cc3)oc12,669
23,O=S1(=O)N(Cc2cccc(F)c2)CCCN1Cc1ccccc1Cl,1180

# The next lines start with the values.
row,RP-LC retention time [s],Structure (SMILES)
1,998,COCC(=O)N1CCc2c([nH]c3ccccc23)C1c1ccc(SC)cc1 (stereo unspecified)
2,668,O=C(Nc1ccc(F)cc1F)N1CCCC(Cn2c(C3CC3)nc3cccnc32)C1 (stereo unspecified)
3,753,COc1ccc(NC(=O)N2CCC3(CC2)NC(=O)c2cc(Cl)ccc2N3C)cc1
4,776,Cc1cc(F)ccc1NC(=O)c1cc2n(n1)CC(C)(C(=O)NC1CCCCC1)N(C)C2=O (stereo unspecified)
5,817,O=C(Cc1cccs1)N1CCCC1c1cccc(F)c1 (stereo unspecified)
6,640,O=C1NCCCn2cc(S(=O)(=O)NCc3ccc4c(c3)OCO4)cc21
7,752,O=C(Nc1c(-c2ccc(F)cc2)nc2ccccn12)c1ccc2ccccc2c1
8,1340,CC(C)n1c(=O)oc2cc(-c3noc(-c4cccc(Br)c4)n3)ccc21
9,834,Cc1ccccc1-c1noc(Cn2ccn(-c3ccccc3)c(=O)c2=O)n1
10,936,COc1ccc(-c2nc(-c3cccc(-c4ccn[nH]4)c3)no2)c(OC)c1
11,1040,O=C(COc1ccc(Br)cc1)Nc1cncc(-c2nc3ccccc3o2)c1
12,931,Cc1cc(N2CCC(NC(=O)Nc3cc(F)cc(F)c3)C2=O)ccc1F (stereo unspecified)
13,690,O=C(Cn1nc2nc(N3CCCC3)ccn2c1=O)NCc1ccc(Cl)cc1
14,607,CC1CC(=O)c2cn3ncnc3nc2C1 (stereo unspecified)
15,652,Cc1ccsc1C(=O)NCC1CN(C(C)C)CC12CCCCC2 (stereo unspecified)
16,898,Cc1ccccc1C(=O)Nc1nc(-c2ccc3c(c2)NC(=O)CO3)c(C)s1
17,1030,CCOc1ccc(-c2noc(Cn3cnc4c(cnn4-c4cc(Cl)ccc4C)c3=O)n2)cc1OC
18,659,CCCn1cnc2cc(CNC(=O)C3CC(=O)N(c4cccc(Cl)c4)C3)ccc21 (stereo unspecified)
19,614,O=C(Nc1ccc(C2(C(=O)N3CCN(c4ccccn4)CC3)CCC2)cc1)C1CC1
20,1080,O=C(Nc1ccsc1-c1nnc(C2CC2)o1)c1ccoc1
21,687,COc1ccc(S(=O)(=O)Nc2cccnc2Nc2ccc(O)cc2)cc1
22,780,COc1ccc(CNC(=O)CN2C(=O)NC(c3ccc(Cl)cc3)C3=C2COC3=O)cc1 (stereo unspecified)
23,675,O=C(Nc1ccccn1)C1CCCN(c2ncnc3c2nc2n3CCCCC2)C1 (stereo unspecified)

row,RP-LC retention time [s],Structure (SMILES)
1,710,CC(C)c1ccc(-c2ccnc3c(C(=O)N4CCN(c5ccccn5)CC4)cnn23)cc1
2,696,CCn1c(=O)n(CC(=O)N2CCN(C)CC2)c(=O)c2cnc(-c3ccc(Cl)cc3)nc21
3,982,COc1ccc(NC(=O)N2CCCC2c2nc(-c3ccc(F)cc3F)no2)cc1Cl (stereo unspecified)
4,745,O=C(Nc1cccc(Cl)c1F)N1CCCC1c1nncn1-c1ccccc1 (stereo unspecified)
5,653,Cc1ccccc1NC(=O)C1C(=O)N(CCO)C2(C)CC1c1ccccc1O2 (stereo unspecified)
6,739,Cc1ccccc1Nc1c(-c2c(F)cccc2Cl)nc2ccccn12
7,1050,Cc1nc(-c2ccc(-c3noc(-c4ccncc4)n3)cc2)cs1
8,1170,Cc1cc(C(=O)Nc2ccc3c(c2)OCO3)c2c(C)nn(-c3cccc(F)c3)c2n1
9,554,NC(=O)CSc1ccc(-c2ccccn2)nn1
10,601,CC(C)n1ccnc(N2CCOCC2)c1=O
11,558,CCN1CCN(CCCNC(=O)C2Cn3cccc3C(=O)N2CC(C)C)CC1 (stereo unspecified)
12,698,O=C(Cc1nnc(-c2cnccn2)o1)NCc1ccc(Cl)cc1
13,636,CCN1CCN(C(=O)Cn2cccc2-c2nnc(-c3ccccc3)o2)CC1
14,669,CC(=O)OCc1cc(=O)n(C)c2c3c4c(cc12)c(C)cc(=O)n4CO3
15,687,CN1C(=O)c2[nH]nc(-c3ccccc3)c2C1c1cccc(O)c1 (stereo unspecified)
16,960,CC(C)c1ccc(C(=O)Nc2cc(-c3ccccn3)no2)cc1
17,957,O=C(NCc1ccc(F)cc1)c1cc(N2CCCC2)n2nccc2n1
18,960,O=C(CN1c2ccc(F)cc2-c2ccccc2S1(=O)=O)NCCc1ccccc1
19,736,COC(=O)C1=CN(C2CC2)c2cc(N3CCOCC3)c(F)cc2S1(=O)=O
20,791,O=C(NCCc1ccccc1)c1ccc2c(cnn2CC(=O)N2CCCCCC2)c1
21,698,O=C(CCNc1c(-c2ccccc2)nc2cnccn12)NCc1cccc(F)c1
22,749,O=S(=O)(c1ccccc1)N1CCC(n2cnnc2-c2ccccc2)CC1
